“And” between values parts separate entries of the source, which are not always exact repeats. Identical values can stand only once.
Experiments:
Type in all cases: in vivo, mouse
APP/PS1 mice [1] = test: flow cytometry of brain immune cells (Fig 5c-g); settings: APP/PS1 + N-AS, individual values
Description: (§1) Transgenic mouse lines over-expressing the hAPP695swe (APP) and presenilin-1M146V (PS1) mutations were originated from GlaxoSmithKline (Harlow, UK)[32] and maintained as described previously. We purchased 5×FAD mice from Jackson Labs (Stock number. 34840-JAX). Because APP/PS1 and 5xFAD mice show sex differences in disease progression, we used only male mice. To examine possible therapeutic effect of N-AS and aspirin in APP/PS1 mice, the N-AS (30 mg kg^−1, Sigma-Aldrich, 01912) was injected daily s.c. for 8 weeks to 7-months-old APP/PS1 mice until the age of 9 months, and aspirin (2 mg kg^−1, Sigma-Aldrich, A5376)[33] was administrated orally to 7-months-old APP/PS1 mice for 8 weeks. Also, to confirm possible therapeutic efficacy of N-AS in 5×FAD, the N-AS (30 mg kg^−1, Sigma-Aldrich, 01912) was injected daily s.c. for 4 weeks to 3-months-old 5×FAD mice until the age of 4 months. Block randomization method was used to allocate the animals to experimental groups. To eliminate the bias, we were blinded in experimental progress such as data collection and data analysis. Mice were housed at temperature of 22 °C and a 12 h day/12 h night cycle with free access to tap water and food pellets. All protocols were approved by the Kyungpook National University Institutional Animal Care and Use Committee.
(§2) Brain microglia polarity and immune cells in brain and blood were analyzed by flow cytometry. Cells from WT, APP/PS1, and APP/PS1 treated with N-AS mice brain were prepared as previously described with minor modifications. Brains of WT, APP/PS1, and APP/PS1 treated with N-AS mice were dissected and immediately transferred in ice-cold HBSS (Gibco). After gentle mincing, the brain was digested in a HBSS solution containing collagenase P (0.2 mg ml^−1, Roche), dispase II (0.8 mg ml^−1, Roche), DNase I (0.01 mg ml^−1, Roche), and collagenase A (0.3 mg ml^−1, Roche) at 37 °C for 1 h under gentle rocking. Digestion was stopped by adding FBS (Gibco) on ice. The supernatants were centrifuged at 250×g for 10 min at 4 °C. The pellet was resuspended in 25% BSA (Gibco)/PBS (Gibco) for myelin removal. Following a centrifugation step at 3000×g for 30 min at 4 °C, the myelin containing supernatant was discarded. The cell pellets were then resuspended in 1 ml of HBSS and filtered through a 40 μm mesh, followed by a washing step in HBSS. The cell pellets were resuspended in 1 ml of red blood cell lysis buffer (BD Biosciences) and incubated at RT for 10 min for lysis of erythrocytes. Subsequently, 2 ml of MACs buffer (Miltenyl Biotec, 130-091-222) was added and centrifuged at 250×g for 10 min at 4 °C. Cells from WT, APP/PS1, and APP/PS1 treated with N-AS mice blood were prepared as previously described with minor modifications. Blood was collected in sodium-heparin tube (BD, 367871) by cardiac puncture. Red blood cells were lysed once at 4 °C for 10 min in 0.15 M NH4Cl ([…] Technologies), washed once with PBS (Gibco), and counted using cell counter (Logos biosystems). […]

APP/PS1 mice [2] = test: flow cytometry of blood immune cells (Supplementary Fig 5e-i); parameters: CD11b+ CD115+ Ly6Chi / CD11b+ CD115+ Ly6Clow / CD115low Ly6Chi Ly6Ghi / CD4+ T cell / B220+ B cell: unit not given here
Description: as §1, §2

APP/PS1 mice [3] = test: tau hyperphosphorylation (AT8) quantification (Fig 6g)
Description: (§3) Thioflavin S (Sigma-Aldrich) staining was carried out according to previously described procedures. We used 6E10 (mouse, 1:100, Signet, SIG39300), anti-20G10 (mouse, 1:1000, provided by D. R. Howlett, GlaxoSmithKline, Harlow, Essex, UK) for Aβ42, anti-G30 (rabbit, 1:1000, provided by D. R. Howlett) for Aβ40, SMA (mouse, 1:400, Sigma-Aldrich, A2547), AT8 (mouse, 1:500, Thermo Fisher Scientific, MN1020), Caspase-3 (mouse, 1:200, Novus Biologicals, NB100-56708), ac-S565 (rabbit, 1:100), COX2 (mouse, 1:250, Thermo Fisher Scientific, 35-8200), Iba1 (rabbit, 1:500, Wako, 019-19941 and goat, Abcam, ab5076), NeuN (mouse, 1:500, Millipore, MAB177), GFAP (rabbit, 1:500, Dako, N1506 and chicken, 1:500, Abcam, ab4674), and Lamp1 (mouse, 1:200, Abcam, ab24170). The sections were analyzed with a laser-scanning confocal microscope (FV3000; Olympus) or with a BX51 microscope (Olympus). MetaMorph software (Molecular Devices) was used to quantification. Three-dimensional reconstruction of microglia was recorded and analyzed using IMARIS software (Bitplane)[11]. For the analysis of age-dependent microglial COX2^+ CX3CR1^+ cells in WT and APP/PS1 mice, COX2 (rabbit, 1:100, Abcam, ab15191) and CX3CR1 (mouse, 1:100, BioLegend, 149008) antibody were used and the images were acquired on Alexa 488 and APC Channel with performed using Operetta CLS and Analysis Software 4.5 (Perkin-Elmer). […]

APP/PS1 mice [4] = test: Caspase-3+ cells, apoptosis (Supplementary Fig 7o)
Description: as §3

APP/PS1 mice [5] = test: Aβ in Lamp1+ phagolysosomes of microglia (Supplementary Fig 5a); settings: N-AS vs vehicle APP/PS1
Description: as §3

APP/PS1 mice [6] = test: Imaris-based morphology of microglia (Supplementary Fig 5b; Additional Fig 2)
Description: as §3

CCCCCCCCCCCCC/C=C/[C@@H](O)[C@H](CO)NC(C)=O [N-AS, N-((2S,3R,E)-1,3-Dihydroxyoctadec-4-en-2-yl)acetamide]
calculated percentage of B220+ B cell (APP/PS1 mice [1]): 2.8 and 2.66 and 2.73 and 2.695 | calculated percentage of CD4+ T cell (APP/PS1 mice [1]): 2.24 and 2.43 and 2.335 and 2.3825 | calculated percentage of CD45+CD11b+Ly6ChiLy6G- monocyte (APP/PS1 mice [1]): 0.84 and 1.06 and 0.92 and 0.95 and 0.99 and 0.935 | calculated percentage of CD45hi CD11b+ Gr-1- F4/80+ CD206+ (anti-inflammatory macrophage) (APP/PS1 mice [1]): 0.4 and 0.45 and 0.37 and 0.39 and 0.41 and 0.38 | calculated percentage of CD45hi CD11b+ Gr-1- F4/80+ MHCIIhi (pro-inflammatory macrophage) (APP/PS1 mice [1]): 0.46 and 0.45 and 0.59 and 0.4 and 0.52 and 0.495 | calculated percentage of cd45+cd11b+gr1+ neutrophil (APP/PS1 mice [1]): 0.452 and 0.46 and 0.34 and 0.504 and 0.4 and 0.422 | calculated percentage of cd45+ly6g+gr1+ neutrophil (APP/PS1 mice [1]): 0.99 and 1.19 and 0.83 and 0.97 and 1.01 and 0.9 | anti-inflammatory monocytes in blood (APP/PS1 mice [2]; N-AS vs vehicle APP/PS1): increased anti-inflammatory monocytes | macrophages and pro-inflammatory monocytes in blood (APP/PS1 mice [2]; N-AS vs vehicle APP/PS1): decreased macrophages and pro-inflammatory monocytes | neutrophils in blood (APP/PS1 mice [2]; N-AS vs vehicle APP/PS1): neutrophils showed no differences between the groups | Lin- CD11b+ F4/80hi (APP/PS1 mice [2]; blood, APP/PS1 + N-AS, sFig 5e): 0.31 and 0.35 and 0.29 and 0.33 and 0.3 | CD11b+ CD115+ Ly6Chi (APP/PS1 mice [2]; blood, APP/PS1 + N-AS, sFig 5f): 0.3325 and 0.21 and 0.4 and 0.265 and 0.235 and 0.305 | CD11b+ CD115+ Ly6Clow (APP/PS1 mice [2]; blood, APP/PS1 + N-AS, sFig 5f): 0.32 and 0.295 and 0.285 and 0.3075 | CD115low Ly6Chi Ly6Ghi (APP/PS1 mice [2]; blood, APP/PS1 + N-AS, sFig 5g): 3.9 and 4.5 and 3.15 and 4.65 and 3 and 4.1 | B220+ B cell (APP/PS1 mice [2]; blood, APP/PS1 + N-AS, sFig 5i): 5.915 and 5.6 and 6.23 and 6.0725 | CD4+ T cell (APP/PS1 mice [2]; blood, APP/PS1 + N-AS, sFig 5h): 3.42 and 3.21 and 3.63 and 3.525 | tau hyperphosphorylation (AT8) quantification (Figure 6g) (APP/PS1 mice [3]; APP/PS1 + N-AS, individual animals): 0.1647 and 0.1634 and 0.2394 and 0.275 and 0.2281 and 0.1841 | tau hyperphosphorylation (APP/PS1 mice [3]; APP/PS1 treated with N-AS): reduced | Caspase-3+ cells (APP/PS1 mice [4]; APP/PS1 + N-AS, sFig 7o): 0.7653 and 0.8763 and 0.6283 and 0.6646 and 0.8616 and 0.8325 | apoptosis (Caspase-3+ cells) (APP/PS1 mice [4]; N-AS vs vehicle APP/PS1): apoptosis was not changed | microglia containing co-stained lysosomes and Aβ (APP/PS1 mice [5]): increased number of microglia containing co-stained lysosomes and Aβ | morphology of non-plaque-associated microglia (APP/PS1 mice [6]; APP/PS1 vs N-AS-treated APP/PS1, Additional Fig. 2 of peer review file): did not differ between the groups | morphology of microglia surrounding Aβ (APP/PS1 mice [6]; N-AS vs vehicle APP/PS1): phagocytic morphology (ameboid microglial morphology) was more evident

From article PMC7217877, “N-AS-triggered SPMs are direct regulators of microglia in a model of Alzheimer’s disease” (Nature Communications, 2020)
